Data from the supplement of paper PMC6045584.
± gives the standard deviation of the averaged measurements.

Legend:
TEMOZOLOMIDE = compound: Cn1nnc2c(C(N)=O)ncn2c1=O [TEMOZOLOMIDE]; assay: surviving fraction relative to DMSO-only wells; higher = less growth inhibition; settings: exposure time: 5 days
Method in brief: (§1)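 Luminescence normalised to the median of DMSO-only wells defines surviving fraction, with viability read by CellTiter-Glo. Signal was recorded after 10 minutes at room temperature, once log-phase tumour cell lines seeded at 250–500 cells per well in 384-well plates had spent 24 hours settling and then five days under continuous exposure to inhibitors at 0.5, 1, 5, 10, 50, 100, 500 and 1000 nM.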

SORAFENIB = compound: CNC(=O)c1cc(Oc2ccc(NC(=O)Nc3ccc(Cl)c(C(F)(F)F)c3)cc2)ccn1 [SORAFENIB]; assay: as above; settings: exposure time: 5 days
Method in brief: as §1

| Test System | surviving fraction (TEMOZOLOMIDE; 0.5 nM) | surviving fraction (TEMOZOLOMIDE; 1 nM) | surviving fraction (TEMOZOLOMIDE; 5 nM) | surviving fraction (TEMOZOLOMIDE; 10 nM) | surviving fraction (TEMOZOLOMIDE; 50 nM) | surviving fraction (TEMOZOLOMIDE; 100 nM) | surviving fraction (TEMOZOLOMIDE; 500 nM) | surviving fraction (TEMOZOLOMIDE; 1000 nM) | surviving fraction (SORAFENIB; 0.5 nM) | surviving fraction (SORAFENIB; 5 nM) | surviving fraction (SORAFENIB; 10 nM) | surviving fraction (SORAFENIB; 50 nM) | surviving fraction (SORAFENIB; 100 nM) | surviving fraction (SORAFENIB; 500 nM) | surviving fraction (SORAFENIB; 1 nM) | surviving fraction (SORAFENIB; 1000 nM) |
| --- | --- | --- | --- | --- | --- | --- | --- | --- | --- | --- | --- | --- | --- | --- | --- | --- |
| 22RV1 PROSTATE | 0.993 ± 0.017 | 1.09 ± 0.05 | 1.03 ± 0.029 | 1.08 ± 0.015 | 1.04 ± 0.057 | 1.13 ± 0.096 | 1.11 ± 0.048 | 1.09 ± 0.069 | 0.995 ± 0.029 | 0.974 ± 0.014 | 0.955 ± 0.025 | 1.09 ± 0.034 | 1.09 ± 0.064 | 1.11 ± 0.043 | – | – |
| 93VU HEADNECK | 1.02 ± 0.1 | 1.04 ± 0.015 | 1.09 ± 0.057 | 1.03 ± 0.14 | 1.11 ± 0.022 | 1.17 ± 0.12 | 1 ± 0.11 | 1.02 ± 0.081 | 0.961 ± 0.081 | 1.12 ± 0.051 | 1.19 ± 0.11 | 1.22 ± 0.1 | 1.17 ± 0.07 | – | 0.987 ± 0.091 | – |
| 143B BONE | 0.914 ± 0.096 | 1.0035 ± 0.00071 | 0.961 ± 0.047 | 1 ± 0.033 | 1.01 ± 0.013 | 1.02 ± 0.023 | 0.965 ± 0.03 | 1.04 ± 0.019 | – | – | 1.042 ± 0.0078 | 1.03 ± 0.06 | 1.02 ± 0.042 | – | 1.02 ± 0.018 | 0.962 ± 0.012 |
| A549 LUNG | 1.03 ± 0.0082 | 1.03 ± 0.04 | 1.03 ± 0.037 | 1.06 ± 0.013 | 1.03 ± 0.024 | 1.04 ± 0.032 | 1.04 ± 0.044 | 1.06 ± 0.047 | 0.994 ± 0.032 | 1.01 ± 0.027 | – | – | 1.12 ± 0.043 | 1.12 ± 0.055 | 0.949 ± 0.017 | 1.04 ± 0.02 |
| ASKA SYNOVIAL | 1.03 ± 0.078 | 1.03 ± 0.066 | 1.12 ± 0.044 | 1.22 ± 0.12 | 1.14 ± 0.082 | 1.24 ± 0.02 | 1.15 ± 0.055 | 1.2 ± 0.058 | 1.12 ± 0.019 | 1.18 ± 0.024 | 1.12 ± 0.028 | 1.15 ± 0.031 | 1.15 ± 0.014 | 1.01 ± 0.023 | 1.07 ± 0.063 | 0.954 ± 0.045 |
| BT20 BREAST | 1.05 ± 0.097 | 1.07 ± 0.15 | 1.04 ± 0.085 | 1.13 ± 0.11 | 1.01 ± 0.053 | 1.08 ± 0.081 | 1.03 ± 0.053 | 1.15 ± 0.052 | – | 1.07 ± 0.23 | 1.07 ± 0.23 | 1.01 ± 0.33 | 0.951 ± 0.3 | – | 1.04 ± 0.26 | – |
| BT549 BREAST | 1.1 ± 0.12 | 1.08 ± 0.085 | 1.05 ± 0.1 | 1.12 ± 0.13 | 1.09 ± 0.043 | 1.26 ± 0.1 | 1.09 ± 0.07 | 1.19 ± 0.14 | 1.2 ± 0.1 | 1.037 ± 0.01 | 1.15 ± 0.068 | 1.07 ± 0.081 | – | 1.09 ± 0.11 | 1.11 ± 0.17 | 1.11 ± 0.16 |
| C33A CERVIX | 0.944 ± 0.13 | 0.901 ± 0.11 | 1.02 ± 0.056 | 0.929 ± 0.088 | 0.944 ± 0.047 | 1.05 ± 0.061 | 0.924 ± 0.012 | 0.984 ± 0.068 | – | 1.08 ± 0.084 | 1.07 ± 0.075 | 1.18 ± 0.17 | 1.23 ± 0.17 | 1.21 ± 0.069 | 1.1 ± 0.17 | 1.19 ± 0.13 |
| CADOES1 SOFT TISSUE | 0.965 ± 0.14 | 0.979 ± 0.071 | 0.907 ± 0.07 | 0.877 ± 0.032 | 0.956 ± 0.068 | 0.937 ± 0.04 | 0.968 ± 0.096 | 0.969 ± 0.12 | 1.02 ± 0.062 | 0.862 ± 0.035 | – | 0.972 ± 0.15 | 0.947 ± 0.1 | – | – | 0.603 ± 0.19 |
| CAL51 BREAST | 0.973 ± 0.038 | 1.05 ± 0.037 | 0.993 ± 0.02 | 1.07 ± 0.048 | 1.05 ± 0.057 | 1.06 ± 0.048 | 1.04 ± 0.032 | 1.02 ± 0.037 | 0.979 ± 0.04 | 0.9937 ± 0.0025 | 1.01 ± 0.022 | 1.12 ± 0.046 | 1.1 ± 0.05 | 1.02 ± 0.034 | 0.991 ± 0.014 | 0.977 ± 0.041 |
| CAL72 BONE | 1.04 ± 0.056 | 0.996 ± 0.098 | 1.04 ± 0.083 | 1.02 ± 0.081 | 1.1 ± 0.05 | 1.09 ± 0.087 | 1.076 ± 0.0011 | 1.07 ± 0.094 | 1.06 ± 0.031 | 1.09 ± 0.026 | 1.05 ± 0.048 | 1.13 ± 0.039 | 1.121 ± 0.0063 | 1.09 ± 0.041 | – | 1.08 ± 0.042 |
| CAL120 BREAST | 0.948 ± 0.059 | 0.963 ± 0.033 | 0.99 ± 0.048 | 0.96 ± 0.075 | 0.976 ± 0.075 | 0.988 ± 0.016 | 0.988 ± 0.053 | 0.989 ± 0.025 | 0.959 ± 0.026 | 0.931 ± 0.025 | – | 1.02 ± 0.014 | 1.01 ± 0.038 | 0.973 ± 0.023 | 0.9315 ± 0.0074 | 0.942 ± 0.032 |
| CASKI CERVIX | 0.888 ± 0.013 | 0.88 ± 0.049 | 0.965 ± 0.044 | 1.01 ± 0.12 | 1 ± 0.023 | 1.04 ± 0.05 | 0.929 ± 0.072 | 1 ± 0.074 | 0.895 ± 0.04 | 0.983 ± 0.044 | 0.969 ± 0.019 | 1.13 ± 0.077 | 1.13 ± 0.075 | 1.05 ± 0.019 | 0.94 ± 0.054 | 0.865 ± 0.045 |
| CHLA90 AUTONOMIC GANGLIA | 0.928 ± 0.039 | 0.975 ± 0.047 | 0.941 ± 0.053 | 0.96 ± 0.023 | 0.963 ± 0.068 | 1.03 ± 0.055 | 1.02 ± 0.087 | 1.03 ± 0.098 | 0.992 ± 0.05 | – | 0.996 ± 0.037 | 1.13 ± 0.037 | 1.27 ± 0.062 | 1.38 ± 0.1 | 1.04 ± 0.039 | 1.5 ± 0.12 |
| CME SYNOVIAL | 1.31 ± 0.12 | 1.21 ± 0.12 | 1.24 ± 0.033 | 1.33 ± 0.18 | 1.34 ± 0.12 | 1.46 ± 0.064 | 1.34 ± 0.027 | 1.39 ± 0.065 | 1.23 ± 0.11 | 1.28 ± 0.072 | 1.38 ± 0.075 | 1.28 ± 0.058 | 1.4 ± 0.12 | 1.27 ± 0.073 | 1.2 ± 0.07 | 1.15 ± 0.025 |
| COLO320DM LARGE INTESTINE | 1.21 ± 0.13 | 1.1 ± 0.036 | 1.13 ± 0.055 | 1.17 ± 0.12 | 1.1 ± 0.035 | 1.142 ± 0.011 | 1.15 ± 0.014 | 1.06 ± 0.047 | 1.13 ± 0.042 | 1.15 ± 0.029 | 1.07 ± 0.075 | 1.21 ± 0.14 | 1.11 ± 0.013 | 1.18 ± 0.2 | 1.06 ± 0.04 | 0.968 ± 0.074 |
| DU4475 BREAST | 0.877 ± 0.091 | 0.998 ± 0.053 | 0.973 ± 0.19 | 0.878 ± 0.093 | 0.851 ± 0.08 | 1.01 ± 0.2 | 0.972 ± 0.24 | 0.989 ± 0.067 | 1.07 ± 0.35 | 0.927 ± 0.29 | 0.999 ± 0.18 | 0.819 ± 0.25 | 0.939 ± 0.46 | 0.906 ± 0.31 | 1.05 ± 0.2 | 0.769 ± 0.32 |
